Source: patent US10813920B2, “Drug for treating corneal endothelium by promoting cell proliferation or inhibiting cell damage” (THE DOSHISHA, priority 2013, dated 2020)

What was measured:
Type in all cases: cell-based
corneal endothelium = assay: UV-induced apoptosis of corneal endothelium in rabbit sclerocornea segments, Annexin V and DAPI staining; settings: rabbit corneal tissue; UV 100 J/m^2; stored 24 hours at 4° C.; 10 μM SB203580, 3 μM BIRB796, 1 μM PH-797804, 3 μM VX-702, 3 μM LY2228820, 3 μM TAK-715
Procedure: The experiment used a rabbit eye ball 0-24 hours after euthanasia. Sclerocornea was removed along the corneal limbus under a stereo microscope by using spring scissors. The crystalline lens and iris were removed to make a sclerocornea segment. […] After dividing a cornea, pretreatment was applied to the Control group for 2 hours in the dark with Optisol-GS® (Bausch & Lomb) (Lot. […] After washing the cornea twice with PBS(−), 100 J/m^2 of UV was irradiated onto the corneal endothelial cells, which were against stored for 24 hours at 4° C. […] The sclerocornea segments were washed with PBS(−), and MEBCYTO-Apoptosis kit (Annexin V-FITC kit) (MBL) (Lot. 027FA) was used for Annexin V and DAPI staining. The segments were immersed and immobilized for 30 minutes in −30° C. ice-cooled 95% ethanol. In order to remove ethanol components, PBS(−) was exchanged every 5 minutes and the segments were washed three times. An antifading agent was then added and enclosed. Annexin V and nuclei was observed by fluorescence imaging under a confocal microscope. The percentage of Annexin V positive cells were calculated in the above-described rabbit corneal tissue. *p<0.05 (Dunnett's test).

[1] = tested on: cultured monkey corneal endothelial cells; assay: UV-induced apoptosis of cultured monkey corneal endothelial cells, Annexin V and DAPI staining; settings: UV 100 J/m^2, after 9 hours of culture
Procedure: 1×10^5 cultured monkey corneal endothelial cells were seeded on a 12-well plate coated with an FNC Coating Mix and cultured for about 5 days until reaching confluence under the condition of 5% CO2 at 37° C.
Each inhibitor was then added at the concentration in the above-described Table and the cells were incubated for 16 hours under the condition of 5% CO2 at 37° C. The solvent of each reagent, Dimethyl Sulfoxide, Sterile-filtered (nacalai tesque, 13408-64) MSO, was added to the Control group and the UV group. Gibco DMEM, 1% P/S (penicillin/streptomycin) was used as the medium.
The cellular supernatant was then removed and the cells were irradiated with UV (100 J/m^2). After irradiation, cells were again added to a medium containing each inhibitor and cultured for 9 hours. The cell form and apoptosis were observed under a phase difference microscope.
The cells, after 9 hours of culture, were stained for 20 minutes at 37° C. by using MEBCYTO-Apoptosis Kit (Annexin V-FITC Kit) (manufacturer: MBL, Code: 4700). The cells were then immobilized for 10 minutes with 95% acetic acid ethanol. After immobilization, the cells were stained for 30 minutes with DAPI Solution (manufacturer: DOJINDO, Code: GA098) and observed under a confocal microscope.

[2] = tested on: cynomolgus monkey corneal endothelial cells; assay: BrdU ELISA, concentration series, cynomolgus monkey corneal endothelial cells (Example 8); settings: concentration series per agent between 0.1 μM and 100 μM; 5000 cells/well; * p<0.01
Procedure: The medium was removed from a culture dish culturing cynomolgus monkey corneal endothelial cells ([…] phosphate buffer solution (Nacalai Tesque, 14249-95) heated to 37° C. in advance was added thereto and the cells were washed. This operation was repeated twice. After removing the phosphate buffer solution, 0.05% Trypsin-EDTA (Nacalai Tesque, 35554-64) was added and the cells were incubated for 10 minutes at 37° C. (5% CO2). The cells were then suspended in DMEM (Nacalai Tesque, 08456-94)+10% FBS (Biowest, S1820-500)+1% penicillin/streptomycin (P/S, Nacalai Tesque, 26252-94) and centrifuged for 3 minutes at 1200 rpm to collect the cells. A 96-well plate was treated with an FNC coating mix (50 ml ([…], catalog number: 0407). The monkey corneal endothelial cells (lot: 20120404-3L-P8) were seeded in the coated 96-well plate at a ratio of 5000 cells/well. The cells were cultured for 30 hours at 37° C. (5% CO2). After 30 hours, the medium was removed and changed to a serum free medium: DMEM+1% P/S to culture the cells for 18 hours. […] DMSO was added to the control. After 24 hours, a BrdU labeling reagent (Amersham Cell Proliferation Biotrak ELISA System, Version 2, GE Healthcare, catalog number: RPN250) was further added at a ratio of 1:1000 to the DMEM+10% FBS+1% P/S medium. […] DMSO was added to the control. After 24 hours, BrdU ELISA was carried out with Amersham Cell Proliferation Biotrak ELISA System, Version 2 (GE Healthcare, catalog number: RPN250). The absorbance at 450 nm was measured. *P<0.01, Dunnet's test, n=5. As in (1), the medium was removed from a culture dish culturing cynomolgus monkey corneal endothelial cells. A phosphate buffer solution heated to 37° C. in advance was added thereto and the cells were washed. This operation was repeated twice. After removing the phosphate buffer solution, 0.05% Trypsin-EDTA (Nacalai Tesque, 35554-64) was added and the cells were incubated for 10 minutes at 37° C. (5% CO2). The cells were then suspended in DMEM (Nacalai Tesque, 08456-94)+10% FBS (Biowest, S1820-500)+1% penicillin/streptomycin (Nacalai Tesque, catalog number: 26252-94) and centrifuged for 3 minutes at 1200 rpm to collect the cells. A 96-well plate was treated with an FNC coating mix (50 ml ([…], catalog number: 0407). Monkey corneal endothelial cells (lot: 20120404-3L-P8) were seeded in the coated 96-well plate at a ratio of 5000 cells/well. The cells were cultured for 30 hours at 37° C. (5% CO2). After 30 hours, the medium was removed and changed to a serum free medium: DMEM+1% P/S to culture the cells for 18 hours. After 18 hours, Semapimod HCl (MedKoo Biosciences, catalog number: 202590, lot number: SMC20120918) was added to the DMEM+10% FBS+1% P/S medium such that the final concentration dissolved with DMSO was 0.1, 0.3, 1, 3, or 10 μmol/l, and the cells were cultured for 24 hours. DMSO was added to the control. After 24 hours, a BrdU labeling reagent (Amersham Cell Proliferation Biotrak ELISA System, Version 2, GE Healthcare, catalog number: RPN250) was further added at a ratio of 1:1000 to the DMEM+10% FBS+1% P/S medium. Semapimod HCl was added such that the final concentration was 0.1, 0.3, 1, 3, or 10 μmol/l and the cells were cultured for 24 hours. DMSO was added to the control. After 24 hours, BrdU ELISA was carried out with Amersham Cell Proliferation Biotrak ELISA System, Version 2 (GE Healthcare, catalog number: RPN250). The absorbance at 450 nm was measured. […]

Row | SMILES | Apoptosis induced by UV (annexin V staining) (corneal endothelium) | Apoptosis induced by UV (annexin V staining) [1] | BrdU uptake as a percentage with respect to the control (proliferation) [2]
1 | C[S+]([O-])c1ccc(-c2nc(-c3ccncc3)c(-c3ccc(F)cc3)[nH]2)cc1 (stereo not drawn) [SB203580, 4-(4-fluorophenyl)-2-(4-methylsulfinylphenyl)-5-(4-pyridyl)-1H-imidazole] | suppressed | suppressed | promotes proliferation
2 | CNC(=O)c1ccc(C)c(-n2c(C)cc(OCc3ccc(F)cc3F)c(Br)c2=O)c1 [PH-797804, 3-(3-bromo-4-((2,4-difluorobenzyl)oxy)-6-methyl-2-oxopyridine-1(2H)-yl)-N,4-dimethylbenzamide] | suppressed | suppressed | promotes proliferation
3 | CC(C)(C)Cn1c(N)nc2ccc(-c3nc(C(C)(C)C)[nH]c3-c3ccc(F)cc3)nc21 [LY2228820, 5-(2-(tert-butyl)-5-(4-fluorophenyl)-1H-imidazole-4-yl)-3-neopentyl-3H-imidazo[4,5-b]pyridine-2-amine] | suppressed | suppressed | promotes proliferation
4 | CCc1nc(-c2cccc(C)c2)c(-c2ccnc(NC(=O)c3ccccc3)c2)s1 [TAK-715, 2-benzamide-4-[2-ethyl-4-(3-methylphenyl)thiazole-5-yl]pyridine] | suppressed | suppressed | promotes proliferation
5 | Cc1ccc(-n2nc(C(C)(C)C)cc2NC(=O)Nc2ccc(OCCN3CCOCC3)c3ccccc23)cc1 [BIRB796, N-[3-tert-butyl-1-(4-methylphenyl)pyrazole-5-yl]-N′-[4-(2-morpholinoethoxy)-1-naphthyl]urea] | suppressed | suppressed | promotes proliferation
